{"source": "patent US8501431B2", "about": "“Method for screening for compounds selectively interacting with RAD9” (Magnachem International Laboratories, Inc., priority 2008, dated 2013)", "test_system": "mutant strains of Saccharomyces cereviseae (gene rad9)", "experiment": "Bioassay on solid mediums with Securolide on mutant strains of Saccharomyces cereviseae", "type": "cell-based", "details": "concentration between ten and one hundred micrograms/milliliter, set of mutant strains, specifically the gene rad9", "method": "Bioassays on solid mediums were performed with Securolide (LMSV-6) in a concentration between ten and one hundred micrograms/milliliter on a set of mutant strains of Saccharomyces cereviseae with DNA similar to that in tumor/cancer cells.", "note": "“Also recorded” adds a separate entry of the source."}
{"smiles": "C=C1CCOC1=O", "note": "[Securolide]", "values": [{"measurement": "cytoxic activity", "value": "cell death of Rad9 mutant yeast strains; also recorded: marked cytoxic activity only on the mutant strains"}]}
